Measurements published in patent US11771765B2, “Light augmented treatment method” (The Procter & Gamble Company, priority 2019, dated 2023).

Assays:
M. furfur CBS 7982 = test: Fractional Inhibitor Concentration (FIC): antimicrobial plus 409 nm light on M. furfur growth; format: cell-based, Malassezia furfur; conditions: for growth, OD 600 nm: 16 h growth
Description: Fractional Inhibitor Concentration (FIC) is a conventional methodology for evaluating the interaction of two antimicrobial chemicals. […] In an embodiment of the present invention, FIC is used to determine combinatorial effects of one chemical and exposure to light on Malassezia growth and/or viability in an in vitro system.
• 1. M. furfur CBS 7982 cells are exposed to a varying concentrations of an antimicrobial active (e.g. ZPT, Piroctone Olamine) for a specified amount of time (e.g. 2 min to 3 hours). • 2. After exposure, the antimicrobial is washed away by centrifugation of the cells and a series of washes • 3. Cells are then exposed to light at a wavelength of 409 nm for varying lengths of time • 4. Cells are then allowed to grow up overnight (e.g. 17 h) to determine the impact of the treatment on viability and growth of the organism by measuring OD600 II. Data Analysis: • 1. Inhibition of growth is determined to be where the OD value obtained is <=50% of the untreated control • 2. The lowest concentration value of the antimicrobial agent which inhibits growth is determined • 3. Likewise, the shortest light exposure time is determined that gives growth inhibition • 4. Finally, the combination of the lowest concentration of the antimicrobial and the shortest light exposure time that provides growth inhibition is determined • 5. The FIC value is determined using the calculation below:
[formula] • 6. The combinatorial effect of the antimicrobial and light is classified according to the chart below: […]
M. furfur is incubated for one hour with varying concentrations of Piroctone Olamine. Cell pellets are collected by centrifugation so that most of the anti-fungal material has been removed. The cell pellet is suspended in PBS and 500 uL samples are distributed to four 12 well plates and treated with light (409 nm) for 1, 10 or 60 minutes or stored in the dark. Samples are then diluted into mDixon, and incubated for 16 h with subsequent growth measured by OD 600 nm.
M. furfur is incubated for one hour with varying concentrations of Hinokitiol. Cell pellets are collected by centrifugation so that most of the anti-fungal material has been removed. The cell pellet is suspended in PBS and 500 uL samples are distributed to four 12 well plates and treated with light (409 nm) for 1, 10 or 60 minutes or stored in the dark. Samples are then diluted into mDixon, and incubated for 27 h with subsequent growth measured by OD 600 nm. […]

protoporphyrin IX (PPIX) = test: Protoporphyrin IX levels in treated M. furfur cells by HPLC; format: cell-based

## [O-]n1ccccc1=S.[O-]n1ccccc1=S.[Zn+2] [ZPT, zinc salt of 1-hydroxy-2-pyridinethione]
M. furfur CBS 7982; 409 nm light, with the lowest inhibiting concentration
  shortest light exposure time when applied in combination to give growth inhibition: 2 min
M. furfur CBS 7982; ZPT 1.25 ppm 3 h, 409 nm light 0 min
  growth, OD 600 nm: 7.76
M. furfur CBS 7982; ZPT 1.25 ppm 3 h, 409 nm light 2 min
  growth, OD 600 nm: 7.24
M. furfur CBS 7982; ZPT 1.25 ppm 3 h, 409 nm light 10 min
  growth, OD 600 nm: 6.24
M. furfur CBS 7982; ZPT 1.25 ppm 3 h, 409 nm light 60 min
  growth, OD 600 nm: 1.96
M. furfur CBS 7982; ZPT 2.5 ppm 3 h, 409 nm light 0 min
  growth, OD 600 nm: 7.12
M. furfur CBS 7982; ZPT 2.5 ppm 3 h, 409 nm light 2 min
  growth, OD 600 nm: 3.35
M. furfur CBS 7982; ZPT 2.5 ppm 3 h, 409 nm light 10 min
  growth, OD 600 nm: 0.31
M. furfur CBS 7982; ZPT 2.5 ppm 3 h, 409 nm light 60 min
  growth, OD 600 nm: 0.03
M. furfur CBS 7982; ZPT 5 ppm 3 h, 409 nm light 0 min
  growth, OD 600 nm: 6.21
M. furfur CBS 7982; ZPT 5 ppm 3 h, 409 nm light 2 min
  growth, OD 600 nm: 5.30
M. furfur CBS 7982; ZPT 5 ppm 3 h, 409 nm light 10 min
  growth, OD 600 nm: 3.72
M. furfur CBS 7982; ZPT 5 ppm 3 h, 409 nm light 60 min
  growth, OD 600 nm: 0.87
M. furfur CBS 7982; ZPT 10 ppm 3 h, 409 nm light 0 min
  growth, OD 600 nm: 4.85
M. furfur CBS 7982; ZPT 10 ppm 3 h, 409 nm light 2 min
  growth, OD 600 nm: 4.91
M. furfur CBS 7982; ZPT 10 ppm 3 h, 409 nm light 10 min
  growth, OD 600 nm: 4.06
M. furfur CBS 7982; ZPT 10 ppm 3 h, 409 nm light 60 min
  growth, OD 600 nm: 0.83
M. furfur CBS 7982; ZPT 20 ppm 3 h, 409 nm light 0 min
  growth, OD 600 nm: 0.51
M. furfur CBS 7982; ZPT 20 ppm 3 h, 409 nm light 2 min
  growth, OD 600 nm: 0.58
M. furfur CBS 7982; ZPT 20 ppm 3 h, 409 nm light 10 min
  growth, OD 600 nm: 0.64
M. furfur CBS 7982; ZPT 20 ppm 3 h, 409 nm light 60 min
  growth, OD 600 nm: 0.37
M. furfur CBS 7982; antimicrobial alone, no light, inhibition = OD <=50% of untreated control
  lowest concentration to give growth inhibition: 10 ppm
M. furfur CBS 7982; antimicrobial plus 409 nm light
  FIC value: 0.28
M. furfur CBS 7982; antimicrobial plus 409 nm light, classified by FIC value
  Combinatorial Effect: synergistic
M. furfur CBS 7982; with 409 nm light, inhibition = OD <=50% of untreated control
  lowest concentration when applied in combination with light to give growth inhibition: 2.5 ppm
Protoporphyrin IX (PPIX); ZPT 2.5 ppm
  Total PPIX: 0.37 ng
Protoporphyrin IX (PPIX); ZPT 5 ppm
  Total PPIX: 0.47 ng
Protoporphyrin IX (PPIX); ZPT 10 ppm
  Total PPIX: 0.27 ng
